From patent publication US12171756B2, “NLRP3 modulators” (Innate Tumor Immunity, Inc., priority 2017, dated 2024)

How the values were obtained:
[1] = target: T1, human TLR8 (Homo sapiens, UniProt Q9NR97); test: In vitro human TLR8 binding reporter assay (HEK-Blue, NF-kB/AP1-inducible SEAP); type: cell-based; settings: HEK-Blue human TLR8 SEAP reporter cells; activity range classes; read-out: TLR8 Agonist EC50
T1 construct: host or cells: human HEK-Blue cells (HEK293-derived) co-expressing TLR8 and an NF-kB/AP1-inducible SEAP reporter
T1 sequence (Q9NR97 27-1041): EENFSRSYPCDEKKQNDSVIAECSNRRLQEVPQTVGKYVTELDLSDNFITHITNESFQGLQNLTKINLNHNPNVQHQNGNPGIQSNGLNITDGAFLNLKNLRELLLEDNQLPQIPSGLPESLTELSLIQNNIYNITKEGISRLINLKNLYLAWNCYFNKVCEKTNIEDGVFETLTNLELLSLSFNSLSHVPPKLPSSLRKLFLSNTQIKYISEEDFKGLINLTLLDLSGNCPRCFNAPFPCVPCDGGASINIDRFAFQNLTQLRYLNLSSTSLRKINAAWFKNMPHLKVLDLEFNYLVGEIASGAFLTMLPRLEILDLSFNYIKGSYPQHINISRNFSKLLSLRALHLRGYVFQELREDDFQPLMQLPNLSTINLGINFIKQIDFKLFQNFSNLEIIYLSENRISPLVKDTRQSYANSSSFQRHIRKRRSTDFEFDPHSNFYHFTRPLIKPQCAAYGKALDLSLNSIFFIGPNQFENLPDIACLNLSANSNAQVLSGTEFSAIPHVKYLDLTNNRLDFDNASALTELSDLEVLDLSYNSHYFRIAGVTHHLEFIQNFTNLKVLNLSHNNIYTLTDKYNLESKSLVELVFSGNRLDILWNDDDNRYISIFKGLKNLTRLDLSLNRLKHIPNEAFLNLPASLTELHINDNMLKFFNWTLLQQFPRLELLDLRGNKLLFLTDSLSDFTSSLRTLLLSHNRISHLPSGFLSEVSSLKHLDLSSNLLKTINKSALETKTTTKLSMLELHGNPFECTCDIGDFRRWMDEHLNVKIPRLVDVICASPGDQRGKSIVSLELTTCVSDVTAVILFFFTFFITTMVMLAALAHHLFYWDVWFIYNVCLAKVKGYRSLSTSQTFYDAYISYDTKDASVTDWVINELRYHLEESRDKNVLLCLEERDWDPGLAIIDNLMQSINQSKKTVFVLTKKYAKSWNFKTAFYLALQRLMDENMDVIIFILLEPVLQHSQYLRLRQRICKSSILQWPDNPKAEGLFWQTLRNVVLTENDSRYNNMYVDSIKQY
Method in brief: (§1)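 Cells are seeded and grown for 24 h. Compounds or DMSO are then added and incubated 18 h at 37 °C. Quanti-Blue is added, and SEAP is read after thirty minutes. EC50 values are normalized, with RLU from 50 μM reference standard setting 100% Ymax.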

[2] = test system: IL-1β production in PMA-differentiated THP-1 cells; test: Measurement of IL-1β production in PMA-differentiated THP-1 cells (ELISA, 4 hours); type: cell-based, human; settings: Homo sapiens, THP-1, human IL-1β production, assayed using one or more of the described procedures, read-out: NLRP3 hIL1B IC50
Method in brief: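 THP-1 cells differentiated with PMA (10 μg/ml, 24 h), replated at 1×10^6 cells/ml in RPMI with 2% FBS and exposed to compounds (e.g. 0.1–100 μM, 1% DMSO final) for 4 hours. IL-1β in cell-free supernatant quantified by ELISA against vehicle control.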

[3] = target: T2, human TLR7 (Homo sapiens, UniProt Q9NYK1); test: In vitro human TLR7 binding reporter assay (HEK-Blue, NF-kB/AP1-inducible SEAP); type: cell-based; settings: HEK-Blue human TLR7 SEAP reporter cells; activity range classes; read-out: TLR7 Agonist EC50
T2 construct: host or cells: human HEK-Blue cells (HEK293-derived) co-expressing TLR7 and an NF-kB/AP1-inducible SEAP reporter
T2 sequence (Q9NYK1 27-1049): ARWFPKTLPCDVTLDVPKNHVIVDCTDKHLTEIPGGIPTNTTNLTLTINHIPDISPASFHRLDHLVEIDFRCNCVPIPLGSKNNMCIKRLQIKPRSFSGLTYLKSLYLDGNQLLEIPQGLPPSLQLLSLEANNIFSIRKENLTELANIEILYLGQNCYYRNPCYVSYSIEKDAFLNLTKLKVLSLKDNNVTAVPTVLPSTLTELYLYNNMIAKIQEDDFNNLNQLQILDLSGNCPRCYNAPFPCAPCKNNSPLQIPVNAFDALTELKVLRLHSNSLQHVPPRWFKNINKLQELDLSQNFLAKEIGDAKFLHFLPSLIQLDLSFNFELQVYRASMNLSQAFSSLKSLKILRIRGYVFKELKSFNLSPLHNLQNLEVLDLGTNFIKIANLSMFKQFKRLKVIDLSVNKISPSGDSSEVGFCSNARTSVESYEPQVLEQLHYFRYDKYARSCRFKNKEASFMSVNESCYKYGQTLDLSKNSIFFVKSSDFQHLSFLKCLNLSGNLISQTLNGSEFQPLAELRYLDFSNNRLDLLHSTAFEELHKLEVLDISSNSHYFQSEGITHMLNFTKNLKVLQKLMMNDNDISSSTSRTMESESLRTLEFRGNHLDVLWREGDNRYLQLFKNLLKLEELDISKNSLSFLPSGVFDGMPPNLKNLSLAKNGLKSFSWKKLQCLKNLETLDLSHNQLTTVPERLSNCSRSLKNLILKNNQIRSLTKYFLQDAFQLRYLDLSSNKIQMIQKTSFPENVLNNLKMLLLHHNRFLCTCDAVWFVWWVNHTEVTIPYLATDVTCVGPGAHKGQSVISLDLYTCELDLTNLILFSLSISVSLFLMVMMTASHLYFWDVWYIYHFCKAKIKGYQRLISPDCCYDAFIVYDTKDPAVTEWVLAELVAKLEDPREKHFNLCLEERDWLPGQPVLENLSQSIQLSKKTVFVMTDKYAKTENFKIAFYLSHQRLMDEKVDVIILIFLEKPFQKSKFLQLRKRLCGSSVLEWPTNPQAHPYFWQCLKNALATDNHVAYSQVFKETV
Method in brief: as §1

| EC50 [1] | IC50 [2] | EC50 [3] | Compound |
| --- | --- | --- | --- |
| > 100 µM | 7.26 µM | > 100 µM | Nc1cc(-c2cnn(CCO)c2)c2ccc(-c3ccn[nH]3)cc2n1 [Compound 348, 2-(4-(2-amino-7-(1H-pyrazol-5-yl)quinolin-4-yl)-1H-pyrazol-1-yl)ethan-1-ol] |
| > 100 µM | 5.8 µM | > 100 µM | Nc1cc(OC[C@H](O)CN2CCOCC2)c2ccc(-c3ccn[nH]3)cc2n1 [Compound 349, (R)-1-((2-amino-7-(1H-pyrazol-5-yl)quinolin-4-yl)oxy)-3-morpholinopropan-2-ol] |
| > 100 µM | 4.19 µM | > 100 µM | Nc1cc(NCCC(=O)N2CCOCC2)c2ccc(-c3ccn[nH]3)cc2n1 [Compound 350, 3-((2-amino-7-(1H-pyrazol-5-yl)quinolin-4-yl)amino)-1-morpholinopropan-1-one] |
